# Calls of active or inactive are those of the source. The calls are words filed in the database; no cut-off is given here.
# Legend:
# [1] = tested on: Escherichia coli; assay: Antibacterial activity against Escherichia coli K-12 MG1655 after 16 hrs by microbroth dilution method; type: functional; conditions: K-12 MG1655, 16 h
# [2] = tested on: Escherichia coli; assay: Antibacterial activity against Escherichia coli ATCC 25922 after 16 hrs by microbroth dilution method; type: functional; conditions: ATCC 25922, 16 h
# [3] = tested on: Pseudomonas aeruginosa; assay: Antibacterial activity against Pseudomonas aeruginosa PAO1 after 16 hrs by microbroth dilution method; type: functional; conditions: PAO1, 16 h
# [4] = tested on: Stenotrophomonas maltophilia; assay: Antibacterial activity against Stenotrophomonas maltophilia B22020 after 16 hrs by microbroth dilution method; type: functional; conditions: B22020, 16 h
# [5] = tested on: Burkholderia cepacia; assay: Antibacterial activity against Burkholderia cepacia B154408 after 16 hrs by microbroth dilution method; type: functional; conditions: B154408, 16 h
# [6] = tested on: Bacillus subtilis; assay: Antibacterial activity against Bacillus subtilis 168 after 16 hrs by microbroth dilution method; type: functional; conditions: subsp. subtilis str. 168, 16 h
# [7] = tested on: Micrococcus luteus; assay: Antibacterial activity against Micrococcus luteus after 16 hrs by microbroth dilution method; type: functional
# [8] = tested on: Staphylococcus aureus; assay: Antibacterial activity against Staphylococcus aureus after 16 hrs by microbroth dilution method; type: functional
# [9] = tested on: HeLa; assay: Cytotoxicity against human HeLa cells after 24 hrs by Cell Titre-Glo luminescent assay; type: cell-based
# [10] = tested on: Candida albicans; assay: Antifungal activity against Candida albicans after 16 hrs by microbroth dilution method; type: functional
# [11] = target: Small ribosomal subunit protein bS18 (Escherichia coli (strain K12)) (UniProt P0A7T7); assay: Inhibition of IPTG-stimulated Escherichia coli K-12 rpSR at 4 fold MIC by microarray analysis
# [12] = target: tRNA threonylcarbamoyladenosine biosynthesis protein TsaE (Escherichia coli (strain K12)) (UniProt P0AF67); assay: Inhibition of IPTG-stimulated Escherichia coli K-12 yjeE at 4 fold MIC by microarray analysis
# [13] = target: T1, Dihydrofolate synthase/folylpolyglutamate synthase (Escherichia coli (strain K12)) (UniProt P08192); assay: Inhibition of IPTG-stimulated Escherichia coli K-12 folC at 4 fold MIC by microarray analysis
# T1 sequence (whole entry): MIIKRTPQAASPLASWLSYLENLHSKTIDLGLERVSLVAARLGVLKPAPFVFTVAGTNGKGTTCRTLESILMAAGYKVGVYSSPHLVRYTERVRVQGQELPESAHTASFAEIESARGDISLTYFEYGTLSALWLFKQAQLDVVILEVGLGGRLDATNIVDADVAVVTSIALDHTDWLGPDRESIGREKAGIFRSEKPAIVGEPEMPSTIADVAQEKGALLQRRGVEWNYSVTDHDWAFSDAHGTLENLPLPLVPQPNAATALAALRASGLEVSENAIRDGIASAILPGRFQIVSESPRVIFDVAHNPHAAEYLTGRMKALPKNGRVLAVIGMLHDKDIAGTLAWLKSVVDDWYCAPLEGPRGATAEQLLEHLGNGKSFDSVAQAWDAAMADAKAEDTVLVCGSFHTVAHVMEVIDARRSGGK
# [14] = target: T2, Outer membrane protein TolC (Escherichia coli (strain K12)) (UniProt P02930); assay: Inhibition of IPTG-stimulated Escherichia coli K-12 tolC at 8 fold MIC by microarray analysis
# T2 sequence (whole entry): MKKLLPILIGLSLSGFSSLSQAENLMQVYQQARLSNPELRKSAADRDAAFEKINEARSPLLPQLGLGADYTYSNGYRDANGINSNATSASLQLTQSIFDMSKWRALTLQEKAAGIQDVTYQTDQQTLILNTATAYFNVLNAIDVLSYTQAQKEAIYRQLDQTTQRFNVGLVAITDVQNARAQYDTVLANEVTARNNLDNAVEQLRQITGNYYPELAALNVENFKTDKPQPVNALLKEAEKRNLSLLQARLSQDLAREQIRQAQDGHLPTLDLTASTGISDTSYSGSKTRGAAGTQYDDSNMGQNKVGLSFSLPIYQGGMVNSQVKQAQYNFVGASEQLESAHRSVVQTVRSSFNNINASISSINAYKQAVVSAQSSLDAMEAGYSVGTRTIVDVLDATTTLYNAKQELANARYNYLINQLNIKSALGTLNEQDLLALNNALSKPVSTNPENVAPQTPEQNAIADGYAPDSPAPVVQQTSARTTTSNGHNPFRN
# [15] = target: tRNA threonylcarbamoyladenosine biosynthesis protein TsaE (Escherichia coli (strain K12)) (UniProt P0AF67); assay: Inhibition of IPTG-stimulated Escherichia coli K-12 yjeE at 8 fold MIC by microarray analysis
# [16] = target: Small ribosomal subunit protein bS18 (Escherichia coli (strain K12)) (UniProt P0A7T7); assay: Inhibition of IPTG-stimulated Escherichia coli K-12 rpSR at 8 fold MIC by microarray analysis
# [17] = target: T2, Outer membrane protein TolC (Escherichia coli (strain K12)); assay: Inhibition of IPTG-stimulated Escherichia coli K-12 tolC at 4 fold MIC by microarray analysis
# [18] = target: UDP-N-acetylglucosamine 1-carboxyvinyltransferase (Escherichia coli K-12) (UniProt P0A749); assay: Inhibition of IPTG-stimulated Escherichia coli K-12 murA at 4 fold MIC by microarray analysis
# [19] = target: Multifunctional CCA protein (Escherichia coli (strain K12)) (UniProt P06961); assay: Inhibition of IPTG-stimulated Escherichia coli K-12 cca at 4 fold MIC by microarray analysis
# Sequence of Multifunctional CCA protein (Escherichia coli (strain K12)) (P06961 whole entry): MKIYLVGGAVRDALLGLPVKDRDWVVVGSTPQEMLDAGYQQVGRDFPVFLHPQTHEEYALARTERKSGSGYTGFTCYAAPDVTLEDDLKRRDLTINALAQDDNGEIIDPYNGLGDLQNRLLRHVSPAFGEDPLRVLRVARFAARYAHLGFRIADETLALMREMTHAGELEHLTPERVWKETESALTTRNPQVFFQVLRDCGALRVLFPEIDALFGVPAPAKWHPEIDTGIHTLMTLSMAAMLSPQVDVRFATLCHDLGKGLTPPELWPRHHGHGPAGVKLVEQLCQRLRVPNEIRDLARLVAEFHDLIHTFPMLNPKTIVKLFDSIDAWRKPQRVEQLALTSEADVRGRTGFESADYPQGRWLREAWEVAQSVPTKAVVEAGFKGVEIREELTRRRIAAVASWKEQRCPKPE
# [20] = target: D-alanine--D-alanine ligase B (Escherichia coli K-12) (UniProt P07862); assay: Inhibition of IPTG-stimulated Escherichia coli K-12 ddlB at 4 fold MIC by microarray analysis
# [21] = target: T3, Uncharacterized protein YdiL (Escherichia coli (strain K12)) (UniProt P76196); assay: Inhibition of IPTG-stimulated Escherichia coli K-12 ydiL at 16 fold MIC by microarray analysis
# T3 sequence (whole entry): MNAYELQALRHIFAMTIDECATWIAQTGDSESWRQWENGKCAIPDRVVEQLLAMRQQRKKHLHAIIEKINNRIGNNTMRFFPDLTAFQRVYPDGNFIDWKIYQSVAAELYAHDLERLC
# [22] = target: T2, Outer membrane protein TolC (Escherichia coli (strain K12)); assay: Inhibition of IPTG-stimulated Escherichia coli K-12 tolC at 16 fold MIC by microarray analysis
# [23] = target: T3, Uncharacterized protein YdiL (Escherichia coli (strain K12)); assay: Inhibition of IPTG-stimulated Escherichia coli K-12 ydiL at 8 fold MIC by microarray analysis
# [24] = target: Transcriptional regulatory protein BaeR (Escherichia coli (strain K12)) (UniProt P69228); assay: Inhibition of IPTG-stimulated Escherichia coli K-12 baeR at 4 fold MIC by microarray analysis
# Sequence of Transcriptional regulatory protein BaeR (Escherichia coli (strain K12)) (P69228 whole entry): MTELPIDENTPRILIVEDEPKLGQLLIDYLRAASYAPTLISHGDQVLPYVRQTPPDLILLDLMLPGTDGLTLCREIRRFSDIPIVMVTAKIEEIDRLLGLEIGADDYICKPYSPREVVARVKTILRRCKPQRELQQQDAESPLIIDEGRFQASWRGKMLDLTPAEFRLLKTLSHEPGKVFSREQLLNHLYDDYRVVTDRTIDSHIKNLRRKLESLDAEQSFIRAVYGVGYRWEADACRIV
# [25] = target: Protein YdfW (Escherichia coli (strain K12)) (UniProt P76164); assay: Inhibition of IPTG-stimulated Escherichia coli K-12 ydfW at 4 fold MIC by microarray analysis
# Sequence of Protein YdfW (Escherichia coli (strain K12)) (P76164 whole entry): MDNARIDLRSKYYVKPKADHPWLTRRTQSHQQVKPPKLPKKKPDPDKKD
# [26] = target: Glycerate 3-kinase (Escherichia coli (strain K12)) (UniProt P77364); assay: Inhibition of IPTG-stimulated Escherichia coli K-12 glxK at 4 fold MIC by microarray analysis
# Sequence of Glycerate 3-kinase (Escherichia coli (strain K12)) (P77364 whole entry): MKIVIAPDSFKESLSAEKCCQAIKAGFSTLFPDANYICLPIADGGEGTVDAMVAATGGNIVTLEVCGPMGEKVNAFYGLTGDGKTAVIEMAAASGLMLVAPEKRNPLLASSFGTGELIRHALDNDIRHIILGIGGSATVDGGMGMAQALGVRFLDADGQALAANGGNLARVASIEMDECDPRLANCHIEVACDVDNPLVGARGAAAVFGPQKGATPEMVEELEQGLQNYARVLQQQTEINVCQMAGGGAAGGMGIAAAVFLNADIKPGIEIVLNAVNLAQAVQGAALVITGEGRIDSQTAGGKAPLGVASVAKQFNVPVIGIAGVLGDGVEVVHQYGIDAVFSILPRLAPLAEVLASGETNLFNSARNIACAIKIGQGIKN
# [27] = target: Long-chain fatty acid transport protein (Escherichia coli (strain K12)) (UniProt P10384); assay: Inhibition of IPTG-stimulated Escherichia coli K-12 fadl at 4 fold MIC by microarray analysis
# Sequence of Long-chain fatty acid transport protein (Escherichia coli (strain K12)) (P10384 whole entry): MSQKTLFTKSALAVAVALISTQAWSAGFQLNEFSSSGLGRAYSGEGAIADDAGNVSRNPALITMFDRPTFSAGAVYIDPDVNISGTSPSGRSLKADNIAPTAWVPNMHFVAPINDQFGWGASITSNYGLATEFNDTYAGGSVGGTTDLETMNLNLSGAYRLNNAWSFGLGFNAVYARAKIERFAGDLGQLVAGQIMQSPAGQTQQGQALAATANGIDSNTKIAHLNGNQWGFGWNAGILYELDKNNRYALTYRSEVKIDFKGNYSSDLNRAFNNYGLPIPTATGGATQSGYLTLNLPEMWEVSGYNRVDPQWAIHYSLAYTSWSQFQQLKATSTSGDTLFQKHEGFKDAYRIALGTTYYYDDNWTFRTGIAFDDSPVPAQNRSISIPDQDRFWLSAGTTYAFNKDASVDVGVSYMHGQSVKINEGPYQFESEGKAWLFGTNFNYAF
# [28] = target: Intermembrane phospholipid transport system binding protein MlaB (Escherichia coli (strain K12)) (UniProt P64602); assay: Inhibition of IPTG-stimulated Escherichia coli K-12 yrbB at 4 fold MIC by microarray analysis
# Sequence of Intermembrane phospholipid transport system binding protein MlaB (Escherichia coli (strain K12)) (P64602 whole entry): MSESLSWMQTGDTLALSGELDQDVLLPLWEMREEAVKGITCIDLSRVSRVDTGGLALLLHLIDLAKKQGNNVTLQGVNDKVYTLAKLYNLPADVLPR
# [29] = target: 4-hydroxy-tetrahydrodipicolinate reductase (Escherichia coli (strain K12)) (UniProt P04036); assay: Inhibition of IPTG-stimulated Escherichia coli K-12 dapB at 4 fold MIC by microarray analysis
# Sequence of 4-hydroxy-tetrahydrodipicolinate reductase (Escherichia coli (strain K12)) (P04036 whole entry): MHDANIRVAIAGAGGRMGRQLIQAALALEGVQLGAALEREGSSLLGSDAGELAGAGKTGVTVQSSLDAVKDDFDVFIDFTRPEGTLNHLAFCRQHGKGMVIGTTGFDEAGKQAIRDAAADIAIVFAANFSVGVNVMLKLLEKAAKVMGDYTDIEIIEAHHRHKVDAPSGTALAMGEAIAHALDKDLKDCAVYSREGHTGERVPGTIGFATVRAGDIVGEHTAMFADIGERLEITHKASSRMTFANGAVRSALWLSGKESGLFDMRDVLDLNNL
# [30] = target: Thymidylate kinase (Escherichia coli (strain K12)) (UniProt P0A720); assay: Inhibition of IPTG-stimulated Escherichia coli K-12 tmk at 4 fold MIC by microarray analysis
# Sequence of Thymidylate kinase (Escherichia coli (strain K12)) (P0A720 whole entry): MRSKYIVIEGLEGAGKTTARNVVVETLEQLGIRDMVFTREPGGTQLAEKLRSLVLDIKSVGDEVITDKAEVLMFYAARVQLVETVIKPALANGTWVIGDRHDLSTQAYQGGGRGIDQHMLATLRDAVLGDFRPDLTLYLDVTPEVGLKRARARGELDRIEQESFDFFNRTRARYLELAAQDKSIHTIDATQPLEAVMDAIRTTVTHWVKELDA
# [31] = target: UDP-N-acetylmuramoylalanine--D-glutamate ligase (Escherichia coli K-12) (UniProt P14900); assay: Inhibition of IPTG-stimulated Escherichia coli K-12 murD at 4 fold MIC by microarray analysis
# Sequence of UDP-N-acetylmuramoylalanine--D-glutamate ligase (Escherichia coli K-12) (P14900 whole entry): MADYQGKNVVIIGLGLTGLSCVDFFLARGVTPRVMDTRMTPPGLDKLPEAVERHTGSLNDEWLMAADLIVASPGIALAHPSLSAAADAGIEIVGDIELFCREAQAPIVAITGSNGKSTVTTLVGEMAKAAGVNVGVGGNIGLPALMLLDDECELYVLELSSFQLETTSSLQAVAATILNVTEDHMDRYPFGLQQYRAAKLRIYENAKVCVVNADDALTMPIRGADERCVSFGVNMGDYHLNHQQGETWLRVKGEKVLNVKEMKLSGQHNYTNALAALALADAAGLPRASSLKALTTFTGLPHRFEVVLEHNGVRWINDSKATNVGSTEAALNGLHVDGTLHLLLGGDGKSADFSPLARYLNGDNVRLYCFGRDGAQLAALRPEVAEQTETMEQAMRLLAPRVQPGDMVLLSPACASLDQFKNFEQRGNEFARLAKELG
# [32] = target: Phosphatidylglycerol--prolipoprotein diacylglyceryl transferase (Escherichia coli (strain K12)) (UniProt P60955); assay: Inhibition of IPTG-stimulated Escherichia coli K-12 umpA at 4 fold MIC by microarray analysis
# Sequence of Phosphatidylglycerol--prolipoprotein diacylglyceryl transferase (Escherichia coli (strain K12)) (P60955 whole entry): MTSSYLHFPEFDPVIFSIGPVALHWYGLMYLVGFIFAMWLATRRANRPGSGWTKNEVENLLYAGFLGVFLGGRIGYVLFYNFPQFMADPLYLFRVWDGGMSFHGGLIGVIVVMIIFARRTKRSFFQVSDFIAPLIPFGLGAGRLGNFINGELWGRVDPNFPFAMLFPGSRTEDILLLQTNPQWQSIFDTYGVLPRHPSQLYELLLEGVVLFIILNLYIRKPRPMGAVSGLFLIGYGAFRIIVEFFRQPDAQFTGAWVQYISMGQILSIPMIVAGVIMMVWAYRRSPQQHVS
# [33] = target: Cell shape-determining protein MreC (Escherichia coli (strain K12)) (UniProt P16926); assay: Inhibition of IPTG-stimulated Escherichia coli K-12 mreC at 4 fold MIC by microarray analysis
# Sequence of Cell shape-determining protein MreC (Escherichia coli (strain K12)) (P16926 whole entry): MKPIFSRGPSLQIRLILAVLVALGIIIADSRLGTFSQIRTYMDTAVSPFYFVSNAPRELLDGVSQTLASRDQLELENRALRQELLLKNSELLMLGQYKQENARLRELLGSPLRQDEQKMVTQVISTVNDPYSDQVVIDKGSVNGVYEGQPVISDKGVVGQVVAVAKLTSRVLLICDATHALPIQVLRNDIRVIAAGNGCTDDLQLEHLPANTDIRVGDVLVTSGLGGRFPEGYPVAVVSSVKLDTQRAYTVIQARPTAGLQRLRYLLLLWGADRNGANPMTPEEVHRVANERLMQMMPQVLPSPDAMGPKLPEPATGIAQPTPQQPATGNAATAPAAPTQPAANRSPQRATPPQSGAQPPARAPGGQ
# [34] = target: Antitoxin YefM (Escherichia coli (strain K12)) (UniProt P69346); assay: Inhibition of IPTG-stimulated Escherichia coli K-12 yefM at 4 fold MIC by microarray analysis
# Sequence of Antitoxin YefM (Escherichia coli (strain K12)) (P69346 whole entry): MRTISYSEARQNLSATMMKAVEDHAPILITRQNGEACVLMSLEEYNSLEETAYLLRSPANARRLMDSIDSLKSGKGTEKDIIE
# [35] = target: Large ribosomal subunit protein uL2 (Escherichia coli (strain K12)) (UniProt P60422); assay: Inhibition of IPTG-stimulated Escherichia coli K-12 rplB at 4 fold MIC by microarray analysis
# [36] = target: tRNA(Ile)-lysidine synthase (Escherichia coli (strain K12)) (UniProt P52097); assay: Inhibition of IPTG-stimulated Escherichia coli K-12 mesJ at 4 fold MIC by microarray analysis
# Sequence of tRNA(Ile)-lysidine synthase (Escherichia coli (strain K12)) (P52097 whole entry): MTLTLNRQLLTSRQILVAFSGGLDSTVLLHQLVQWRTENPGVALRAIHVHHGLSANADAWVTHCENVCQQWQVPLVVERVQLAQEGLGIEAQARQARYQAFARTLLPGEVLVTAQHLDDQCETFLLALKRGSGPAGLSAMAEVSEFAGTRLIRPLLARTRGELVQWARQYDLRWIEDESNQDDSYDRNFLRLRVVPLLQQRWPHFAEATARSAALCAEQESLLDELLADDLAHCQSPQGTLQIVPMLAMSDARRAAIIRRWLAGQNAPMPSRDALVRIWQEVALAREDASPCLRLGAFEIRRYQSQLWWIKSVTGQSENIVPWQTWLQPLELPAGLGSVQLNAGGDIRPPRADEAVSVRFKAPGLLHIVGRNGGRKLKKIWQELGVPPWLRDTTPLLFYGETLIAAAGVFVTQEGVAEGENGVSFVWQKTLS
# [37] = target: Cell division protein FtsX (Escherichia coli (strain K12)) (UniProt P0AC30); assay: Inhibition of IPTG-stimulated Escherichia coli K-12 ftsX at 4 fold MIC by microarray analysis
# Sequence of Cell division protein FtsX (Escherichia coli (strain K12)) (P0AC30 whole entry): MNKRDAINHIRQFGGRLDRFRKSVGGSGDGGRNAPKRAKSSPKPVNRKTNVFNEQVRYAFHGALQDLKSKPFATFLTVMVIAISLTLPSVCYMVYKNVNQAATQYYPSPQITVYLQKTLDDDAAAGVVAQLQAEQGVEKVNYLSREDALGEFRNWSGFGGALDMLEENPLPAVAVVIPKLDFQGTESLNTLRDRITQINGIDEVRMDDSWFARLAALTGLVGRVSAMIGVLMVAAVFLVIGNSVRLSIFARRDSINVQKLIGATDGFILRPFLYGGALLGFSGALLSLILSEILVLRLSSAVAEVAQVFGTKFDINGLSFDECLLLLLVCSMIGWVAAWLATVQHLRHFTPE
# [38] = target: Glutamyl-tRNA reductase (Escherichia coli (strain K12)) (UniProt P0A6X1); assay: Inhibition of IPTG-stimulated Escherichia coli K-12 hemA at 4 fold MIC by microarray analysis
# Sequence of Glutamyl-tRNA reductase (Escherichia coli (strain K12)) (P0A6X1 whole entry): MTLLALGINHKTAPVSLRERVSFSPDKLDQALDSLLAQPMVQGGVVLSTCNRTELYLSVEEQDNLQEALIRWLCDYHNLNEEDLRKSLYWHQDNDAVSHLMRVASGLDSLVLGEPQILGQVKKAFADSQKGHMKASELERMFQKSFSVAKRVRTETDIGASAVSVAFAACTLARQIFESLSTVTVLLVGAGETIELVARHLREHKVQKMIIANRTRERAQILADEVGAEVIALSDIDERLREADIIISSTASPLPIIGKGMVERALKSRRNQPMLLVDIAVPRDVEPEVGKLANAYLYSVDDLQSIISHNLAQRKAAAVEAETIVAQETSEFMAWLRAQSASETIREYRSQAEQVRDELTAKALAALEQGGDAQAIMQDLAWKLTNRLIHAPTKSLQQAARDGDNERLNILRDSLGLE
# [39] = target: Large ribosomal subunit protein bL28 (Escherichia coli (strain K12)) (UniProt P0A7M2); assay: Inhibition of IPTG-stimulated Escherichia coli K-12 rpmB at 4 fold MIC by microarray analysis
smiles,measurement,setting,value
COc1ccc(CN2CN=C(SCc3ccc(Cl)cc3)NC2)cc1OC,MIC,[1],32 mg/L
COc1ccc(CCN2CN=C(SCc3ccccc3Cl)NC2)cc1OC,MIC,[1],> 256 mg/L
CN1CN=C(SCc2ccc(Cl)cc2)NC1,MIC,[1],8 mg/L
same,MIC,[2],256 mg/L
same,MIC,[3],> 256 mg/L
same,MIC,[4],> 256 mg/L
same,MIC,[5],> 256 mg/L
same,MIC,[6],> 256 mg/L
same,MIC,[7],> 256 mg/L
same,MIC,[8],> 256 mg/L
same,Activity,[9],> 256 µg/mL
same,MIC,[10],> 256 mg/L
COc1ccc(CCN2CN=C(SCc3cc(Cl)cc(Cl)c3)NC2)cc1OC,MIC,[1],16 mg/L
COc1cc(Cc2cnc(N)nc2N)cc(OC)c1OC,inhibition,[11],Active
Cc1cc(NS(=O)(=O)c2ccc(N)cc2)no1,inhibition,[12],Active
same,inhibition,[11],Active
same,inhibition,[13],Active
same,inhibition,[14],Active
same,inhibition,[15],Active
same,inhibition,[16],Active
same,inhibition,[17],Active
Clc1ccc(CCN2CN=C(SCc3ccc(Cl)cc3)NC2)cc1,MIC,[1],32 mg/L
CCN1CN=C(SCc2ccc(Cl)cc2)NC1,MIC,[1],8 mg/L
COc1ccc(CCN2CN=C(SCc3ccc(Br)cc3)NC2)cc1OC,MIC,[1],8 mg/L
COc1ccc(CCN2CN=C(SCc3ccc([N+](=O)[O-])cc3)NC2)cc1OC,MIC,[1],> 256 mg/L
COc1ccc(CCN2CN=C(SCc3ccc(C)cc3)NC2)cc1OC,MIC,[1],64 mg/L
COc1ccc(CCN2CN=C(SCc3cccc(Cl)c3)NC2)cc1OC,MIC,[1],> 256 mg/L
O=CN(O)CCCP(=O)(O)O,inhibition,[12],Active
same,inhibition,[18],Active
same,inhibition,[19],Active
same,inhibition,[20],Active
same,inhibition,[21],Active
same,inhibition,[22],Active
same,inhibition,[23],Active
same,inhibition,[14],Active
same,inhibition,[24],Active
same,inhibition,[25],Active
same,inhibition,[26],Active
same,inhibition,[27],Active
same,inhibition,[28],Active
same,inhibition,[29],Active
same,inhibition,[30],Active
same,inhibition,[31],Active
same,inhibition,[32],Active
same,inhibition,[33],Active
same,inhibition,[34],Active
same,inhibition,[35],Active
same,inhibition,[36],Active
same,inhibition,[37],Active
same,inhibition,[38],Active
same,inhibition,[39],Active
same,inhibition,[17],Active
COc1ccc(CSC2=NCN(CCc3ccc(OC)c(OC)c3)CN2)cc1,MIC,[1],512 mg/L
Clc1ccc(CSC2=NCN(CCc3ccccc3)CN2)cc1,MIC,[1],8 mg/L
COc1ccc(CCN2CN=C(SCc3ccc(Cl)c(Cl)c3)NC2)cc1OC,MIC,[1],8 mg/L
COc1ccc(CCN2CN=C(SCc3ccccc3)NC2)cc1OC,MIC,[1],256 mg/L
same,MIC,[2],8 mg/L
same,MIC,[3],32 mg/L
same,MIC,[4],16 mg/L
same,MIC,[5],128 mg/L
same,MIC,[6],> 256 mg/L
same,MIC,[7],> 256 mg/L
same,MIC,[8],> 256 mg/L
same,Activity,[9],> 256 µg/mL
same,MIC,[10],> 256 mg/L
CN[C@@H]1[C@H](O)[C@H](NC)[C@H]2O[C@@]3(O)C(=O)C[C@@H](C)O[C@H]3O[C@@H]2[C@H]1O,inhibition,[12],Active
same,inhibition,[11],Active
same,inhibition,[15],Active
same,inhibition,[16],Active
COc1ccc(CCN2CN=C(SCc3ccc(I)cc3)NC2)cc1OC,MIC,[1],256 mg/L
COc1ccc(CCN2CN=C(SCc3ccc(Cl)cc3)NC2)cc1,MIC,[1],64 mg/L
COc1cccc(CCN2CN=C(SCc3ccc(Cl)cc3)NC2)c1,MIC,[1],16 mg/L
